For one data set, the target named is T1, CFR1R receptor (Homo sapiens, UniProt P34998).
T1 construct: host or cells: CHO-K1 (clone 2)
T1 sequence (P34998 24-415): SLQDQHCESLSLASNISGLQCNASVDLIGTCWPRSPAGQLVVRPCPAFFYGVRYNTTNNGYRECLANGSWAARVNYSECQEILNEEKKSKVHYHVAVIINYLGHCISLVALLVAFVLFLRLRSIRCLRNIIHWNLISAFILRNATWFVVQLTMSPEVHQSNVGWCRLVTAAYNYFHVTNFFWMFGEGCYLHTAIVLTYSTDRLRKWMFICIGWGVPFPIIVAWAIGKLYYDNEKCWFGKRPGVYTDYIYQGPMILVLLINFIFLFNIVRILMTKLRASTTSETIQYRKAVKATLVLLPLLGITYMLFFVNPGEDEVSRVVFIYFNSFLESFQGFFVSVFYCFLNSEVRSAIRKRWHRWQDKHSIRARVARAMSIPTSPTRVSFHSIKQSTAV
Description: Activity at anti-target CFR1R receptor, cAMP assay in CRF1R-overexpression CHO-K1 cells. The class given is cell-based. As to conditions: 100% = Sauvagine at 100 nM; for EC50: cAMP. The procedure, abridged: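 cAMP readout in CRF1R-overexpressing CHO-K1 cells (clone 2), run as for the TeloHAEC assay at 4000 cells/well final. Cells came from cryopreserved banks. Sauvagine at 100 nM defined 100% activation.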
In general terms: Cyclic AMP is a second messenger, typically raised through Gs and lowered through Gi signalling.

The nature of data set [1]: In vitro plasma stability, minipig plasma. The class given is in vitro ADME. Also on record: remaining at 2 h: dose or concentration left out as unconfirmed. To be noted: Minipig PLM, 37° C.
Data set [2] can be described thus: In vitro subcutaneous tissue supernatant (SCts) stability and metabolite identification, rat. The class given is in vitro ADME. Also on record: remaining at 2 h: dose or concentration left out as unconfirmed. To be noted: male, Sprague Dawley; rat subcutaneous tissue supernatant (SCts), 37° C, 2 h.
The target of another data set is T2, rat CRF2 a (Rattus norvegicus, UniProt P47866).
T2 construct: host or cells: A7R5 rat aortic smooth muscle cells
Description: Activity at rat CRF2 a, cAMP assay in A7R5 rat aortic smooth muscle cells. Format: cell-based. To be noted: 0% HSA, 100% = Sauvagine at 100 nM. The procedure, abridged:
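cAMP response measured in frozen-stock A7R5 rat aortic smooth muscle cells, 5000 cells/well final. 100% activation defined by Sauvagine at 100 nM in control wells.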

A further data set in a line: in vitro. Also on record: dose or concentration left out as unconfirmed. To be noted: dog, plasma.

*1 amine or outer side, *2 acyl side, *3 side chain or, on linkers, in order; H or OH if unused. Where a SMILES comes first, the peptide text is derived from it. Side-chain parts run from the residue outwards. [ ]: non-standard residue; d: D form. The star is where a group is joined. C20 diacid = O=C(O)CCCCCCCCCCCCCCCCCCC(=O)*; C18 diacid = O=C(O)CCCCCCCCCCCCCCCCC(=O)*; γGlu = O=C(O)[C@H](CCC(=O)[*:2])N[*:1]; NMeI = CC[C@H](C)[C@H](NC)C(=O)O; αMeL = CC(C)C[C@](C)(N)C(=O)O; AEEA = NCCOCCOCC(=O)O; Aib = CC(C)(N)C(=O)O

As a reminder, the EC50 is the concentration giving half of the maximal effect.

T2 sequence (P47866 27-431 isoform P47866-2 limits assumed): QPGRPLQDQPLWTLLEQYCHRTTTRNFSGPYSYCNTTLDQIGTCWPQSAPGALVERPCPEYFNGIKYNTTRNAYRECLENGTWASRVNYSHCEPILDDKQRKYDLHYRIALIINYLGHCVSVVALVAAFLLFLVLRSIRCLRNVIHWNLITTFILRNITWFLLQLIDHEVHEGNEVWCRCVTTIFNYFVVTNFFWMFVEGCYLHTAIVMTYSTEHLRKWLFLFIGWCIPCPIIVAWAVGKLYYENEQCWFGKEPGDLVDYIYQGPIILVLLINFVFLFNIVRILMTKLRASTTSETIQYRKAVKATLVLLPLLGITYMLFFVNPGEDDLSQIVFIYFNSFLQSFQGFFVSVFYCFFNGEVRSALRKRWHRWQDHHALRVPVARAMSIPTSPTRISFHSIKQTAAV

`CC[C@H](C)[C@H](NC(C)=O)C(=O)N[C@H](C(=O)N[C@@H](CC(C)C)C(=O)N[C@@H](CO)C(=O)N[C@@H](CC(C)C)C(=O)N[C@@H](CC(=O)O)C(=O)N[C@@H](C(=O)N1CCC[C@H]1C(=O)N[C@H](C(=O)N[C@@H](CCCCN)C(=O)N[C@@](C)(CC(C)C)C(=O)N[C@@H](CCCCNC(=O)COCCOCCNC(=O)COCCOCCNC(=O)CC[C@H](NC(=O)CCCCCCCCCCCCCCCCC(=O)O)C(=O)O)C(=O)N[C@@H](CCCCN)C(=O)N[C@H](C(=O)N[C@@H](CC(C)C)C(=O)N[C@@H](CC(C)C)C(=O)N[C@@H](CCC(=O)O)C(=O)N[C@@H](CCC(N)=O)C(=O)N[C@@H](CCC(=O)O)C(=O)N[C@@H](CCCCN)C(=O)N[C@@H](CCC(N)=O)C(=O)N[C@@H](CCCCN)C(=O)N[C@@H](CCCCN)C(=O)N[C@@H](CCC(N)=O)C(=O)N[C@@H](CCCNC(=N)N)C(=O)N[C@@H](CCC(=O)O)C(=O)N[C@@H](CCC(N)=O)C(=O)N[C@@H](C)C(=O)N[C@@H](CCC(=O)O)C(=O)N[C@H](C(=O)N[C@@H](CC(N)=O)C(=O)NC(C)(C)C(=O)N[C@@H](CCC(N)=O)C(=O)N[C@H](C(=O)N[C@@H](CC(C)C)C(=O)N[C@@H](C)C(=O)N[C@@H](CCC(N)=O)C(=O)N[C@H](C(N)=O)C(C)C)[C@@H](C)CC)[C@@H](C)O)[C@@H](C)CC)[C@@H](C)CC)C(C)C)C(C)C` [compound 110] (Ac-IVLSLD[dV]PIK[αMeL]K([AEEA-AEEA-γGlu-C18 diacid])KILLEQEKQKKQREQAETN[Aib]QILAQV-NH2): at CFR1R receptor, the “Emax (% I)” value turned out to be 9 % I and the EC50 was more than 250 nM. Further, the amount remaining at 2 h in data set [1] (pig, plasma) was 106%. In addition, in data set [2], the fraction remaining at 2 h turned out to be 77%.

Take `CC[C@H](C)[C@H](NC)C(=O)N[C@H](C(=O)N[C@@H](CC(C)C)C(=O)N[C@@H](CO)C(=O)N[C@@H](CC(C)C)C(=O)N[C@@H](CC(=O)O)C(=O)N[C@@H](C(=O)N1CCC[C@H]1C(=O)N[C@H](C(=O)N[C@@H](CCCCN)C(=O)N[C@@H](CC(C)C)C(=O)N[C@@H](CCCCNC(=O)COCCOCCNC(=O)COCCOCCNC(=O)CC[C@H](NC(=O)CCCCCCCCCCCCCCCCC(=O)O)C(=O)O)C(=O)N[C@@H](CCCCN)C(=O)N[C@H](C(=O)N[C@@H](CC(C)C)C(=O)N[C@@H](CC(C)C)C(=O)N[C@@H](CCC(=O)O)C(=O)N[C@@H](CCC(N)=O)C(=O)N[C@@H](CCC(=O)O)C(=O)N[C@@H](CCCCN)C(=O)N[C@@H](CCC(N)=O)C(=O)N[C@@H](CCCCN)C(=O)N[C@@H](CCCCN)C(=O)N[C@@H](CCC(N)=O)C(=O)N[C@@H](CCCNC(=N)N)C(=O)N[C@@H](CCC(=O)O)C(=O)N[C@@H](CCC(N)=O)C(=O)N[C@@H](C)C(=O)N[C@@H](CCC(=O)O)C(=O)N[C@H](C(=O)N[C@@H](CC(N)=O)C(=O)NC(C)(C)C(=O)N[C@@H](CCC(N)=O)C(=O)N[C@H](C(=O)N[C@@H](CC(C)C)C(=O)N[C@@H](C)C(=O)N[C@@H](CCC(N)=O)C(=O)N[C@H](C(N)=O)C(C)C)[C@@H](C)CC)[C@@H](C)O)[C@@H](C)CC)[C@@H](C)CC)C(C)C)C(C)C` [compound 118] (H-[NMeI]VLSLD[dV]PIKLK([AEEA-AEEA-γGlu-C18 diacid])KILLEQEKQKKQREQAETN[Aib]QILAQV-NH2): on CFR1R receptor, the “Emax (% I)” value was found to be 7 % I and the EC50 is more than 250 nM. Besides, the “% remaining at 2 hours” value in data set [1] is given as 126%.

On to `CC[C@H](C)[C@H](NC(C)=O)C(=O)N[C@H](C(=O)N[C@@H](CC(C)C)C(=O)N[C@@H](CO)C(=O)N[C@@H](CC(C)C)C(=O)N[C@@H](CC(=O)O)C(=O)N[C@@H](C(=O)N1CCC[C@H]1C(=O)N[C@H](C(=O)N[C@@H](CCCCN)C(=O)N[C@@H](CC(C)C)C(=O)N[C@@H](CCCCNC(=O)CC[C@H](NC(=O)CCCCCCCCCCCCCCCCCCC(=O)O)C(=O)O)C(=O)N[C@@H](CCCCN)C(=O)N[C@H](C(=O)N[C@@H](CC(C)C)C(=O)N[C@@H](CC(C)C)C(=O)N[C@@H](CCC(=O)O)C(=O)N[C@@H](CCC(N)=O)C(=O)N[C@@H](CCC(=O)O)C(=O)N[C@@H](CCCCN)C(=O)N[C@@H](CCC(N)=O)C(=O)N[C@@H](CCCCN)C(=O)N[C@@H](CCCCN)C(=O)N[C@@H](CCC(N)=O)C(=O)N[C@@H](CCCNC(=N)N)C(=O)N[C@@H](CCC(=O)O)C(=O)N[C@@H](CCC(N)=O)C(=O)N[C@@H](C)C(=O)N[C@@H](CCC(=O)O)C(=O)N[C@H](C(=O)N[C@@H](CC(N)=O)C(=O)NC(C)(C)C(=O)N[C@@H](CCC(N)=O)C(=O)N[C@H](C(=O)N[C@@H](CC(C)C)C(=O)N[C@@H](C)C(=O)N[C@@H](CCC(N)=O)C(=O)N[C@H](C(N)=O)C(C)C)[C@@H](C)CC)[C@@H](C)O)[C@@H](C)CC)[C@@H](C)CC)C(C)C)C(C)C` [compound 206] (Ac-IVLSLD[dV]PIKLK([γGlu-C20 diacid])KILLEQEKQKKQREQAETN[Aib]QILAQV-NH2), for which the “Emax (% I)” value on CFR1R receptor turned out to be 42 % I. Also, on rat CRF2 a, it took 0.06 nM to reach a half-maximal effect (EC50). Moreover, the fraction remaining at 2 h in data set [2] amounted to 73%.

For the compound `CC[C@H](C)[C@H](NC)C(=O)N[C@H](C(=O)N[C@@H](CC(C)C)C(=O)N[C@@H](CO)C(=O)N[C@@H](CC(C)C)C(=O)N[C@@H](CC(=O)O)C(=O)N[C@@H](C(=O)N1CCC[C@H]1C(=O)N[C@H](C(=O)N[C@@H](CCCCN)C(=O)N[C@@H](CC(C)C)C(=O)N[C@@H](CCCCNC(=O)CC[C@H](NC(=O)CCCCCCCCCCCCCCCCCCC(=O)O)C(=O)O)C(=O)N[C@@H](CCCCN)C(=O)N[C@H](C(=O)N[C@@H](CC(C)C)C(=O)N[C@@H](CC(C)C)C(=O)N[C@@H](CCC(=O)O)C(=O)N[C@@H](CCC(N)=O)C(=O)N[C@@H](CCC(=O)O)C(=O)N[C@@H](CCCCN)C(=O)N[C@@H](CCC(N)=O)C(=O)N[C@@H](CCCCN)C(=O)NC(C)(C)C(=O)N[C@@H](CCC(N)=O)C(=O)N[C@@H](CCCNC(=N)N)C(=O)N[C@@H](CCC(=O)O)C(=O)N[C@@H](CCC(N)=O)C(=O)N[C@@H](C)C(=O)N[C@@H](CCC(=O)O)C(=O)N[C@H](C(=O)N[C@@H](CC(N)=O)C(=O)NC(C)(C)C(=O)N[C@@H](CCC(N)=O)C(=O)N[C@H](C(=O)N[C@@H](CC(C)C)C(=O)N[C@@H](C)C(=O)N[C@@H](CCC(N)=O)C(=O)N[C@H](C(N)=O)C(C)C)[C@@H](C)CC)[C@@H](C)O)[C@@H](C)CC)[C@@H](C)CC)C(C)C)C(C)C` [compound 215] (H-[NMeI]VLSLD[dV]PIKLK([γGlu-C20 diacid])KILLEQEKQK[Aib]QREQAETN[Aib]QILAQV-NH2), at CFR1R receptor, the “Emax (% I)” value is 19 % I and the EC50 is more than 250 nM. Besides, the share remaining at 2 h in data set [2] came out at 84%.

Take `CC[C@H](C)[C@H](NC)C(=O)N[C@H](C(=O)N[C@@H](CC(C)C)C(=O)N[C@@H](CO)C(=O)N[C@@H](CC(C)C)C(=O)N[C@@H](CC(=O)O)C(=O)N[C@@H](C(=O)N1CCC[C@H]1C(=O)N[C@H](C(=O)N[C@@H](CCCCN)C(=O)N[C@@H](CC(C)C)C(=O)N[C@@H](CCCCNC(=O)CC[C@H](NC(=O)CCCCCCCCCCCCCCCCCCC(=O)O)C(=O)O)C(=O)N[C@@H](CCCCN)C(=O)N[C@H](C(=O)N[C@@H](CC(C)C)C(=O)N[C@@H](CC(C)C)C(=O)N[C@@H](CCC(=O)O)C(=O)N[C@@H](CCC(N)=O)C(=O)N[C@@H](CCC(=O)O)C(=O)N[C@@H](CCCCN)C(=O)N[C@@H](CCC(N)=O)C(=O)N[C@@H](CCCCN)C(=O)N[C@@H](CCC(=O)O)C(=O)N[C@@H](CCC(N)=O)C(=O)N[C@@H](CCCNC(=N)N)C(=O)N[C@@H](CCC(=O)O)C(=O)N[C@@H](CCC(N)=O)C(=O)N[C@@H](C)C(=O)N[C@@H](CCC(=O)O)C(=O)N[C@H](C(=O)N[C@@H](CC(N)=O)C(=O)NC(C)(C)C(=O)N[C@@H](CCC(N)=O)C(=O)N[C@H](C(=O)N[C@@H](CC(C)C)C(=O)N[C@@H](C)C(=O)N[C@@H](CCC(N)=O)C(=O)N[C@H](C(N)=O)C(C)C)[C@@H](C)CC)[C@@H](C)O)[C@@H](C)CC)[C@@H](C)CC)C(C)C)C(C)C` [compound 218] (H-[NMeI]VLSLD[dV]PIKLK([γGlu-C20 diacid])KILLEQEKQKEQREQAETN[Aib]QILAQV-NH2): the “Emax (% I)” value on CFR1R receptor amounted to 24 % I. The EC50 on CFR1R receptor is more than 250 nM. Besides, the figures for the fraction remaining at 2 h (in data set [2]; in the data set “in vitro”) were 71% and 102%, respectively.

The record behind these values is US20260001928A1 (CORTERIA PHARMACEUTICALS, priority 2022, published 2026).
